# Experimental data published in patent US20110293518A1 (GE HEALTHCARE LIMITED, priority 2005, published 2011).
# Assays:
# [1] = PET with DDE (and GLD) in patients with whiplash associated disorder (WAD); type: in vivo, human; conditions: for increase of uptake at cervical vertebrae 2 and 3 (insertion in m. semispinalis capitis): one case
# Text: Clinically, those patients with a higher uptake of DDE in the affected joint areas seem to report high pain ratings while being in the scanner.
# In a similar experiment, sixteen patients were investigated using a high resolution PET scanner.
# In the […] experiments, local uptake was present in all cases in the parotis and submandibularis glandulae. Differences between patients were found in areas related to the insertion of muscles to the occipital bone, vertebrae and clavicula.
# [2] = PET with DDE in inflamed joints (rheumatoid arthritis patients); type: in vivo, human
# [3] = PET-CT with DDE in healthy subjects; type: in vivo, human; conditions: eight healthy subjects
# Text: In a third experiment eight healthy subjects were investigated using a PET-CT (Computerized Tomography) scanner. PET/CT combines the strengths of two well-established imaging modalities, PET for function and CT for anatomy, into a single imaging device. The subjects were free from pain in the neck and shoulder regions during at least two months and they had not been involved in accidents which could have caused a neck injury.
# [4] = Pilot PET experiments in patients with bacterial abscesses; type: in vivo, human; conditions: small pilot series in patients
# [5] = Frozen section autoradiography / in vitro binding on tissue slices; set-up: species or system human; conditions: for tracer binding in inflammatory tissues in vitro: about 20 micrometer slices, about 2 nM tracer, about 40 minutes, room temperature
# Method: There are various hypothesis as to what biological mechanisms are behind the high uptake of DDE in inflammatory joint tissues of humans.
# The in vitro binding experiments were performed on thin slices of tissue of about 20 micrometers in rats and in humans. The thin slices of tissues were adhered to gelatinized slide glasses. […] After incubation the slide glasses were washed about 3 times in a buffer, dried, and exposed on phosphor imaging plates for a minimum of 60 minutes.
Compound,"increase in uptake compared with the cerebellum, insertion of m. rectus capitis posterior major ([1]; bilaterally in 3 patients, normalized to inferior part of the cerebellum)","binding of tracer to soft tissue in the neck vertebra ([1]; four of eight WAD patients, PET)","difference in uptake between right and left side ([1]; fourth patient, no clear increase)",increase of uptake at cervical vertebrae 2 and 3 (insertion in m. semispinalis capitis) [1],"patients with increased uptake in the neck and shoulder areas ([1]; sixteen patients, high resolution PET scanner)",uptake and retention on swollen synovial tissue ([2]; inflamed synovial joints),uptake in affected joint after intra-articular injections of glucocorticoids ([2]; observed 6-14 days after treatment),blocking of uptake in inflamed joint by Eldepryl (MAO-B blocking) ([2]; one patient re-examined after administration of Eldepryl),activity in inflamed tissue as seen in PET images ([2]; patients with rheumatoid arthritis),reduction of activity in inflamed tissue ([2]; the day after intra-articular administration of glucocorticoid),increased uptake in scanned neck and shoulder regions [3],increase of tracer uptake in bacterial abscesses [4],tracer binding in inflammatory tissues in vitro [5],binding in frozen section autoradiography ([5]; various tissues)
"C#CCN([11CH3])[C@@H](C)Cc1ccccc1 [DDE, D-[methyl-^11C]-deprenyl]",57%-127%,appeared to bind to soft tissue in the neck vertebra,40%,approximately 70%,about 50%,very pronounced uptake and retention,significant diminishing of the uptake,no blocking effect,very high activity,50%,None of the subjects revealed an increased uptake,no visible increase,very high,much higher binding in inflamed joints than any other tissues
"[11CH3]Oc1ccc(-n2nnnc2C(F)(F)F)cc1CN[C@H]1CCCN[C@H]1c1ccccc1 [GLD, [^11C]-GR205171]",–,–,–,approximately 70%,–,–,–,–,–,–,–,no visible increase,very high,–
